Data set [1] has as its system total actin cytoskeleton in SK-N-SH neuroblastoma cells. Briefly: Microfilament disruption assay, 488-Atto-Phallodin imaging and filament quantitation. Particulars: 0-40 μM, 24 h, FIG. 2. The class given is cell-based. On the procedure: (§1) FIG. 2: Imaging and quantitation of actin filaments in SK—N—SH neuroblastoma cells treated with compound (A) 4093 and (B) 4113. Cells were stained with 488-Atto-Phallodin and DAPI to visualize the actin filament bundles and the nucleus, respectively. Shown in the top panel is a representative grey scale immunofluorescent image from control (vehicle alone), 5 μM and 10 μM treated cells. […] The coloured lines indicate the detected actin filaments. Also shown is the quantitation of cell number, filament number/cell and filament number/cell area ([…]). […]
(§2) The ability of compounds 4093 and 4113 to disrupt the total actin cytoskeleton (FIG. 2) and to specifically target Tm5NM1-containing actin filaments (FIG. 3) was assessed in vitro using the microfilament disruption assay.
(§3) Briefly, SK-N-SH neuroblastoma cells were seeded at 1800 cells/well in a 384 Perkin Elmer High Content Imaging “View” plate and left to plate down 24 h prior to treatment. […] Images were then exported and changes in the organization and numbers of actin filaments within the cell were quantitated using a linear feature detection algorithm developed by the CSIRO. […] It is these “ridge lines” that correspond to actin filament bundles and allow us to quantitate the number of filaments per cell.

Data set [2] relates to Tm5NM1-containing actin filaments in SK-N-SH neuroblastoma cells. Briefly: Microfilament disruption assay, γ9d staining imaging and filament quantitation. To be noted: 0-40 μM, 24 h, FIG. 3. The data set is classed as cell-based. As for the experimental part: as §1, with “FIG. 3:” for “FIG. 2:”, “with γ9d (sheep polycolonal, 1:100) followed by 488-conjugated secondary (1:1000)” for “with 488-Atto-Phallodin”, “the Tm5NM1 containing” for “the actin”
as §2, §3

For data set [3], the system named is melanoma (SK-Mel-28) cells. The data set is described as follows: Cell viability assay (MTT, 48 hr). The data set is classed as cell-based. To be noted: Homo sapiens, 48 hr treatment, read-out: IC50 (μM) SKMEL28. On the procedure:
(§4) Cell viability assays were also conducted to assess the anti-proliferative effects of the anti-tropomyosin compounds 4001-4015. Briefly, cells (1×10^3/well) were plated (96-well) and treated (48 hr) with anti-tropomyosin drug and viability measured using 3-(4,5-dimethylthiazol-2-yl)-2,5-diphenylterazolium bromide MTT. Cell viability was normalized to control (vehicle alone) and dose-response curves, and half maximal effective concentration (EC50) values were determined using Graph Pad Prism 5 (nonlinear regression sigmoidal dose-response variable slope).

For data set [4], the system named is neuroblastoma (SH-EP) cells. The data set is described as follows: Cell viability assay (MTT, 48 hr). The data set is classed as cell-based. To be noted: 48 hr treatment, read-out: IC50 (μM) SHEP. As for the experimental part: as §4
Data set [5] deals with non-transfected and Tm5NM1 stably transfected MEFs. The data set is described as follows: MTT viability in non-transfected versus Tm5NM1 stably transfected MEFs. The data set is classed as cell-based, mouse. Particulars: 48 hr, FIG. 1. As for the experimental part: FIG. 1: Activity of selected compounds against Tm5NM1/2 transfected mouse embryonic fibroblasts versus non-transfected MEFs.
Compounds 4001, 4010, 4014, 4008 and 4015 were then screened against non-transfected and Tm5NM1 stably transfected MEFs. Briefly, MEFs were transfected with pEYFP-C1/Tm5NM1 constructs using the Amaxa nucleofector apparatus (program A-023) and MEF nucleofector kit 1 (Lonza) according to the manufacturer's instructions. Cell viability assays were also conducted to assess the anti-proliferative effects of the anti-tropomyosin compounds. Briefly, cells (1×10^3/well) were plated (96-well) and treated (48 hr) with anti-tropomyosin compounds and viability measured using 3-(4,5-dimethylthiazol-2-yl)-2, 5-diphenylterazolium bromide MTT. Cell viability was normalized to control (vehicle alone) and dose-response curves, and half maximal effective concentration (EC50) values were determined using Graph Pad Prism 5 (nonlinear regression sigmoidal dose-response variable slope).

Data set [6] is described as follows: Tolerance in the A375 xenograft study (body weight, clinical observations). To be noted: hydrochloride salt, 20 mg/kg intravenously QD, 15 days. The data set is classed as in vivo. On the procedure: FIG. 5: Average body weight measurement ±SEM (grams) of animals in Control (Carbonate vehicle) and compound 4015 (20 mg/kg, I.V., QD) treated animals.
(§5) In vivo efficacy studies for compound 4015 hydrochloride salt were conducted using an A375 melanoma xenograft model in Foxn-1 nu/nu athymic mice. The human melanoma cell line A375 (sourced from American Type Culture Collection (ATCC), USA) was used for developing the flank xenograft model. Briefly, five million cells were injected subcutaneously in the right flank region of the animal. When the tumors reached 130-150 mm^3 the animals were randomized into two groups, each group with 8 animals in them, so that the average tumor volume of all the groups was same.
(§6) First group received vehicle (sodium bicarbonate buffer) intravenously once a day (QD). The second group received compound 4015 at 20 mg/kg, intravenously (QD) (Table 7). The volume of dosing to each animal was calculated and adjusted every day based on individual body weight measured prior to dosing.
(§7) Animals were treated from the day of randomization (Day 1) for 15 days. Body weight and tumor dimensions (length and diameter) were measured three times in a week including the termination day of the study. Throughout the study period, mice were monitored daily for clinical condition.

In the next data set the test system is A375 melanoma xenograft. The data set is described as follows: A375 melanoma xenograft efficacy study. The class given is in vivo, Foxn-1 nu/nu athymic mice. To be noted: hydrochloride salt, 20 mg/kg intravenously QD, 15 days. As for the experimental part: FIG. 6: Tumor volumes ±SEM of animals treated with Control (Carbonate vehicle) or compound 4015 (20 mg/kg, I.V., QD).
as §5, §6, §7

As a reminder, the IC50 is the point on the concentration scale where inhibition reaches its midpoint.

The structures appear in SMILES notation.

For the molecule `Cc1c(C)n(CCCN(C)C)c2ccc(Oc3ccc(C(=O)Nc4ccc(F)cc4)cc3)cc12` [Compound 4093, 4-((1-(3-(dimethylamino)propyl)-2,3-dimethyl-1H-indol-5-yl)oxy)-N-(4-fluorophenyl)benzamide], the “Disruption of the total actin cytoskeleton” value in data set [1] is “disrupt both the total actin cytoskeleton and Tm5NM1-containing actin filaments in a dose-dependent manner”. In data set [2], the “Disruption of Tm5NM1-containing actin filaments” value is “disrupt both the total actin cytoskeleton and Tm5NM1-containing actin filaments in a dose-dependent manner”.

As for `Cc1c(C)n(CCCN(C)C)c2ccc(CN3CCN(CCc4ccccc4)CC3)cc12` [Compound 4015, 3-(2,3-dimethyl-5-((4-phenethylpiperazin-1-yl)methyl)-1H-indol-1-yl)-N,N-dimethylpropan-1-amine], the IC50 in data set [3] turned out to be 6.4 µM; in data set [4] it was 4.6 µM. In addition, the “Selectivity: toxicity against primary MEFs versus MEFs stably transfected with Tm5NM1/2” value in data set [5] was “less toxicity noted against primary mouse embryonic fibroblasts (MEFs) compared with MEFs stably transfected with Tm5NM1/2”. The “Tolerability (body weight and clinical observations)” value in data set [6] is “well tolerated”. In addition, in the data set with A375 melanoma xenograft, the “Reduction in tumor growth compared to control” value is listed as 26%.
